Source: article PMC4454744 (Analytical biochemistry, 2015)
Where two headings read alike, the source gives them in different places.

How the values were obtained:
[1] = tested on: hepatitis C virus NS3 protease; details: jump dilution; cited from earlier work
saFabI = experiment: Progress curve analysis, saFabI; format: biochemical, Staphylococcus aureus; details: for residence time tR: progress curve analysis, saFabI system, 20 °C
[2] = biological target: T1, R40Q/K41N/S44L saFabI variant (Staphylococcus aureus, UniProt Q6GI75, K41N/R40Q/S44L); experiment: [32P]-NAD+ direct dissociation method, saFabI; format: binding; details: saFabI system
T1 sequence (Q6GI75 1-256 R40Q/K41N/S44L): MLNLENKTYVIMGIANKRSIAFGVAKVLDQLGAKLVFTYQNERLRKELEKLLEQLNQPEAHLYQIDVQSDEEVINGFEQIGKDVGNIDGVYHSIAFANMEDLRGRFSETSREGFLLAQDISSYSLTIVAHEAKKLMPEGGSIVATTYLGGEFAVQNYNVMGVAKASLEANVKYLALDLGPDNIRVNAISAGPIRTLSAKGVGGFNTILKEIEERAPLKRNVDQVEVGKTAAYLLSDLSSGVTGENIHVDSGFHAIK

[3] = biological target: T2, M. tuberculosis FabI (InhA) (Mycobacterium tuberculosis, UniProt P9WGR1)
[4] = biological target: T2, M. tuberculosis FabI (InhA); details: progress curve analysis; bound to InhA; 20 °C

| Compound | residence time tR (saFabI) [min] | residence time tR [2] [min] | other results |
| --- | --- | --- | --- |
| CC(C)(C)OC(=O)N[C@H]1CCCCC/C=C\[C@@H]2C[C@@]2(C(=O)NS(=O)(=O)C2CC2)NC(=O)[C@@H]2C[C@@H](OC(=O)N3Cc4cccc(F)c4C3)CN2C1=O [ITMN-191] |  |  | recovery of enzyme activity [1]: partial recovery of enzyme activity |
| CCCCCCc1ccc(Oc2ccccc2)c(O)c1 [PT04] | 97 | 461.5 |  |
| CCCCCCc1ccc(Oc2ccccc2Cl)c(O)c1 [PT91] |  |  | residence time tR [3]: 148.4 ± 13.4 min; residence time tR [4]: 102.1 ± 11.4 min |
| CCCCCCc1ccc(Oc2ccccc2C#N)c(O)c1 [PT119] | 120.3 | 833.3 | difference in koff (saFabI; progress curve analysis vs direct dissociation method, inhibition of saFabI): 8 fold |
